# From patent US20050085491A1, “Novel crystalline forms of valacyclovir hydrochloride” (priority 2003, published 2005)
# Entries after “also recorded” stand apart in the source; their conditions may differ.
# What was measured:
# [1] = transformation of crystalline form on drying or squeezing (form identified by XRD); assay type: physicochemical
# Procedure: All powder x-ray diffraction patterns were obtained by methods known in the art using a Scintag X′TRA X-ray powder diffractometer, equipped with a solid state Si(Li) detector thermoelectrically cooled, at scanning speed of 3° min.^−1. The scanning range was 2-40 degrees two-theta. Copper radiation of […] was used. The term x-ray diffraction “peaks” as used herein refers to x-ray diffraction reflections measured using an x-ray powder diffractometer. “Wet” samples (i.e. samples not dried) were analyzed “as is”. Dry samples were gently ground before analysis.
# In yet another embodiment, the present invention relates to transformation, especially by drying or thermal treatment, of herein disclosed crystalline forms of valacyclovir hydrochloride to valacyclovir hydrochloride form I.
# In a further embodiment, the present invention relates to transformation, especially by drying or squeezing, of herein disclosed crystalline forms of valacyclovir hydrochloride to valacyclovir hydrochloride for IV.
# [2] = transformation of crystalline form on exposure to relative humidity; assay type: physicochemical; conditions: atmosphere of about 50% relative humidity for a day or more
# [3] = oral administration; cited from earlier work
# [4] = oral administration, healthy adults; cited from earlier work
# [5] = drying at 50° to 60° C. for about 30 min or more, hydrochloride
# [6] = drying, conditions not stated, hydrochloride
smiles,measurement,setting,value
"CC(C)[C@H](N)C(=O)OCCOCn1cnc2c(=O)nc(N)[nH]c21.Cl [form IX, valacyclovir hydrochloride]",crystalline form obtained on drying,[1]; [5],yields an anhydrous form of valacyclovir hydrochloride
same,crystalline form obtained on drying,[1]; [6],mixture of form I and anhydrous form
"CC(C)[C@H](N)C(=O)OCCOCn1cnc2c(=O)nc(N)[nH]c21.Cl [form V, valacyclovir hydrochloride]",crystalline form before and after drying,"[1]; dried at 50° C. under vacuum, hydrochloride",valacyclovir hydrochloride form V
same,crystalline form obtained on drying,[1]; [6],form V
"CC(C)[C@H](N)C(=O)OCCOCn1cnc2c(=O)nc(N)[nH]c21.Cl [form VIII, valacyclovir hydrochloride]",crystalline form obtained on drying,[1]; drying at 20° to 120° C. for at least about 30 min,yields a hydrate of valacyclovir hydrochloride form I
same,crystalline form obtained on drying,[1]; drying at 50-120° C.,resulted in form I
"CC(C)[C@H](N)C(=O)OCCOCn1cnc2c(=O)nc(N)[nH]c21.Cl [form X, valacyclovir hydrochloride]",crystalline form obtained on drying,[1]; [5],yields a hydrate of valacyclovir form I
"CC(C)[C@H](N)C(=O)OCCOCn1cnc2c(=O)nc(N)[nH]c21.Cl [form XI, valacyclovir hydrochloride]",crystalline form obtained on drying,"[1]; about 700 mm Hg, about 35° C., after 16 hours, about 35% humidity",form VIII
same,crystalline form obtained on drying,"[1]; about 700 mm Hg, about 35° C., after 20 hours, 30% humidity",form IV
same,crystalline form obtained on drying,[1]; [6],transformed to form I; also recorded: converted to form I
same,crystalline form obtained on drying,[1]; vacuum of 250-350 mm Hg at about 35 degrees up to humidity of about 20%,form IV
same,crystalline form obtained on reducing the water content,"[1]; water content reduced to about 15 to 25%, e.g. by drying at about 30° to about 50° C.",transformation to form IV
same,crystalline form obtained on squeezing,[1]; wet sample squeezed on a Buchner filter up to humidity of about 20%,form VIII
"CC(C)[C@H](N)C(=O)OCCOCn1cnc2c(=O)nc(N)[nH]c21.Cl [form XII, valacyclovir hydrochloride]",crystalline form obtained on exposure to humidity,[2],transformation to valacyclovir hydrochloride form I
"CC(C)[C@H](N)C(=O)OCCOCn1cnc2c(=O)[nH]c(N)nc21 [valacyclovir, 1-valine, 2-[(2-amino-1,6-dihydro-6-oxo-9H-purin-9-yl)methoxy]ethyl ester]",absorption from the gastrointestinal tract,[3],rapidly absorbed
same,conversion to acyclovir,[4],converted rapidly and virtually completely to acyclovir
